Source: patent US8598202B2, “Aryl-hydroxyethylamino-pyrimidines and triazines as modulators of fatty acid amide hydrolase” (Janssen Pharmaceutica NV, priority 2008, dated 2013)
Where a name gives a salt, the structure may show the parent alone.

Experiments:
FAAH [1] = molecular target: T1, FAAH (Homo sapiens, UniProt O00519); settings: reported; cited from earlier work
T1 sequence (O00519 1-579): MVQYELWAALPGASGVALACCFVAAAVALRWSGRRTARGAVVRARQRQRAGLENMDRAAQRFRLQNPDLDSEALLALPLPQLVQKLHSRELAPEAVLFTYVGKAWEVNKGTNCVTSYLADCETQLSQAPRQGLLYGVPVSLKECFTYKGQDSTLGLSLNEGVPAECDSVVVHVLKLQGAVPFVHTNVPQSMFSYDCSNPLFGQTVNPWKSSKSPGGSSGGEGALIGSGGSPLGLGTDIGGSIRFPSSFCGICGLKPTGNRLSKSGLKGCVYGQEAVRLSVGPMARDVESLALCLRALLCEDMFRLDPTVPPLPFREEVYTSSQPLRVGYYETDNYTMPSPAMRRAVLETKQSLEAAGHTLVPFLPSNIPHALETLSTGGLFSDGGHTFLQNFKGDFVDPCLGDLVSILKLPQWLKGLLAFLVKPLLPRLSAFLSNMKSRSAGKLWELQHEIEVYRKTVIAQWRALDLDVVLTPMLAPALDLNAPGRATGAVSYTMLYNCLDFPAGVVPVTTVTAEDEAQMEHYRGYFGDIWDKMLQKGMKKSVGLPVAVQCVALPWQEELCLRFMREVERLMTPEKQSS

thermal nociception [2] = settings: rat; cited from earlier work
thermal nociception [3] = settings: rats; WO 04/033652; cited from earlier work
neuropathic pain = settings: rats; WO 02/087569; cited from earlier work
[4] = tested on: acute thermal nociception; settings: rats; WO 02/087569; cited from earlier work
anxiety = settings: rats; Kathuria 2003; cited from earlier work
nociception = settings: rat; Kathuria 2003; cited from earlier work
spasticity = settings: Baker 2001; cited from earlier work
Rat FAAH-1 = molecular target: T2, Rat FAAH-1 (Rattus norvegicus, UniProt P97612); experiment: Assay Method 2: rat FAAH-1 assay, 3H-anandamide hydrolysis in homogenate of SK-N-MC cells transfected with rat FAAH
T2 sequence (P97612 1-579): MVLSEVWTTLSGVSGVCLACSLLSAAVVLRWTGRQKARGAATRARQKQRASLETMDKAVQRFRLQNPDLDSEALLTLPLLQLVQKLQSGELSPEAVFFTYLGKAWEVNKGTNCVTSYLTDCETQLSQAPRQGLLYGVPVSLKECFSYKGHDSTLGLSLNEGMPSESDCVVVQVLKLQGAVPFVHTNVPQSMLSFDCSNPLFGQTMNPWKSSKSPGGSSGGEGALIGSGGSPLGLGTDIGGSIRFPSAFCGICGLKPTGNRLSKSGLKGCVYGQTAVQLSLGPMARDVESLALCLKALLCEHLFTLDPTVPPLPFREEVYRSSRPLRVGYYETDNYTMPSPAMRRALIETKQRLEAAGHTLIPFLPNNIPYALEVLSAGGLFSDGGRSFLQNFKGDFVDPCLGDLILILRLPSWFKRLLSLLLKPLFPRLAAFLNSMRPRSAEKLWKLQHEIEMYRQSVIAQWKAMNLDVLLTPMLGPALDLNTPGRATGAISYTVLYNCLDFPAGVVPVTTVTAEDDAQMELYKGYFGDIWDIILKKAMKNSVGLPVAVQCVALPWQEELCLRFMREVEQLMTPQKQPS

FAAH [5] = molecular target: T1, FAAH; experiment: Assay Method 1: FAAH assay, 3H-anandamide hydrolysis in homogenate of T84 cells or SK-N-MC cells transfected with human FAAH

| SMILES | IC50 (Rat FAAH-1) [nM] | IC50 (FAAH [5]) [nM] | other results |
| --- | --- | --- | --- |
| O=C(CCCCCCc1ccccc1)c1ncc(-c2ccccn2)o1 [OL-135] | – | – | inhibition of FAAH (FAAH [1]): potent inhibitor; analgesic efficacy/activity in hot plate test (thermal nociception [2]): analgesic activity; analgesic activity in tail emersion test (thermal nociception [3]): analgesic activity |
| Cc1nc(-c2ccccc2)c(-c2ccccc2)n1CCCCCCNC(=O)Oc1ccccc1F [BMS-1] | – | – | analgesic effect in Chung spinal nerve ligation model (neuropathic pain): analgesic effect; analgesic effect in Hargraves test [4]: analgesic effect |
| NC(=O)c1cccc(-c2cccc(OC(=O)NC3CCCCC3)c2)c1 [URB-597] | – | – | efficacy in zero plus maze model of anxiety (anxiety): efficacy; analgesic efficacy in formalin test (nociception): analgesic efficacy; analgesic efficacy/activity in hot plate test (thermal nociception [2]): analgesic efficacy |
| CCCCCCCCCCCCCCCCS(=O)(=O)F [AM374] | – | – | reduction of spasticity in CREAE mice (spasticity): significantly reduce spasticity |
| O[C@@H](CNc1cc(-c2ccc(C(F)(F)F)cc2C(F)(F)F)ncn1)c1ccccc1 [Example 152, (1R)-2-({6-[2,4-Bis(trifluoromethyl)phenyl]pyrimidin-4-yl}amino)-1-phenylethanol trifluoroacetic acid salt] | > 10000 | 4000 | – |
| O[C@@H](CNc1cc(-c2cc3ccc(C(F)(F)F)cc3s2)ncn1)c1ccccc1 [Example 186, (1R)-1-Phenyl-2-({6-[6-(trifluoromethyl)-1-benzothiophen-2-yl]pyrimidin-4-yl}amino)ethanol trifluoroacetic acid salt] | > 10000 | 7070 | – |
| O[C@@H](CNc1cc(-c2cc(F)c(OC(F)F)c(F)c2)ncn1)c1ccccc1 [Example 49, (1R)-2-({6-[4-(Difluoromethoxy)-3,5-difluorophenyl]pyrimidin-4-yl}amino)-1-phenylethanol trifluoroacetic acid salt] | 9 | 2 | – |
| OC(CNc1cc(-c2ccc(C(F)(F)F)c(Cl)c2)ncn1)c1ccc(F)cc1 (stereo not shown) [Example 190, 2-({6-[3-Chloro-4-(trifluoromethyl)phenyl]pyrimidin-4-yl}amino)-1-(4-fluorophenyl)ethanol] | 12 | 7 | – |
| OC(CNc1cc(-c2ccc(OC(F)(F)F)cc2)ncn1)c1cccnc1 (stereo not shown) [Example 124, 1-Pyridin-3-yl-2-[(6-{4-[(trifluoromethyl)oxy]phenyl}pyrimidin-4-yl)amino]ethanol] | 4000 | 800 | – |
| N#Cc1ccc(-c2cc(NC[C@H](O)c3ccccc3)ncn2)cn1 [Example 77, 5-(6-{[(2R)-2-Hydroxy-2-phenylethyl]amino}pyrimidin-4-yl)pyridine-2-carbonitrile] | 2200 | 1000 | – |
| OC(CNc1cc(-c2cc(C(F)(F)F)cc(C(F)(F)F)c2)ncn1)c1ccccc1 (stereo not shown) [Example 239, 2-[6-(3,5-Bis-trifluoromethyl-phenyl)-pyrimidin-4-ylamino]-1-phenyl-ethanol] | > 10000 | > 10000 | – |
| CN(C)c1nc(NC[C@H](O)c2ccccc2)cc(-c2ccc(C(F)(F)F)c(Cl)c2)n1 [Example 101, (1R)-2-({6-[3-Chloro-4-(trifluoromethyl)phenyl]-2-(dimethylamino)pyrimidin-4-yl}amino)-1-phenylethanol trifluoroacetic acid salt] | 80 | 32 | – |
| OC(CNc1cc(-c2ccc(C(F)(F)F)c(Cl)c2)ncn1)c1cc2cc(Br)ccc2s1 (stereo not shown) [Example 218, 1-(5-Bromo-1-benzothiophen-2-yl)-2-({6-[3-chloro-4-(trifluoromethyl)phenyl]pyrimidin-4-yl}amino)ethanol] | 1000 | > 10000 | – |
| C[C@H]([C@H](O)c1ccccc1)N(C)c1cc(-c2ccc(OC(F)(F)F)cc2)ncn1 [Example 120, (1R,2R)-2-[Methyl(6-{4-[(trifluoromethyl)oxy]phenyl}pyrimidin-4-yl)amino]-1-phenylpropan-1-ol] | > 10000 | > 10000 | – |
| CN(C)c1ccc(-c2cc(NC[C@H](O)c3ccccc3)ncn2)cn1 [Example 78, (1R)-2-({6-[6-(Dimethylamino)pyridin-3-yl]pyrimidin-4-yl}amino)-1-phenylethanol] | > 10000 | 633 | – |
